Data published in the Biogen ADME set (Fang et al. 2023).
≈ marks a conversion by molar mass, not a printed value.

Conditions: for aqueous solubility: pH 6.8

Structure (SMILES)	MDR1-MDCK efflux ratio	intrinsic clearance, human liver microsomes	intrinsic clearance, rat liver microsomes	aqueous solubility	fraction unbound, human plasma	fraction unbound, rat plasma
Cc1ccc(-c2ccnc(N3C[C@@H](C)NC[C@@H]3C)n2)c(C)n1	25.7	≤ 4.74 mL/min/kg	78.7 mL/min/kg	25.9 µg/mL (≈ 87.2 µM)	–	–
CCCC(=O)Nc1ccc(-n2cccn2)nc1	0.559	≤ 4.74 mL/min/kg	31.8 mL/min/kg	45.2 µg/mL (≈ 196 µM)	–	–
CCN(c1ccccc1)S(=O)(=O)c1ccc(C(F)(F)F)cc1	–	–	–	1.4 µg/mL (≈ 4.25 µM)	–	–
Cc1nnc(NCc2cccnc2)c2ccccc12	6.54	5.21 mL/min/kg	51.4 mL/min/kg	29.9 µg/mL (≈ 120 µM)	–	–
COc1ccc(-c2cnn3c(N)c(-c4ccccc4)cnc23)cc1OC	0.459	–	–	0.19 µg/mL (≈ 0.549 µM)	–	–
c1cnc(NCc2cnc3ccsc3c2)nc1	0.589	12.5 mL/min/kg	52.9 mL/min/kg	–	–	–
Cc1nc(C)c(CNc2cnn(-c3ccccc3)c2)s1	0.521	14.2 mL/min/kg	124 mL/min/kg	36.4 µg/mL (≈ 128 µM)	–	–
CN(c1nc2ccccc2o1)C1CCN(C2CCOCC2)CC1	–	438 mL/min/kg	117 mL/min/kg	–	–	–
CN(CC#N)C(=O)c1cccc(CN2CCCC2)c1	2.59	≤ 4.74 mL/min/kg	322 mL/min/kg	34.9 µg/mL (≈ 136 µM)	–	–
Cc1cccc(/C=N/Nc2cc(N3CCOCC3)nc(OCCc3ccccn3)n2)c1	0.917	130 mL/min/kg	–	–	0.00283	0.0053
O=C(CNC(=O)c1ccccc1Cl)Nc1cccc2c1CCCC2	–	60 mL/min/kg	1840 mL/min/kg	–	–	–

The next lines start with the values.

MDR1-MDCK efflux ratio	intrinsic clearance, human liver microsomes	intrinsic clearance, rat liver microsomes	aqueous solubility	fraction unbound, human plasma	fraction unbound, rat plasma	Structure (SMILES)
6.73	821 mL/min/kg	1770 mL/min/kg	47 µg/mL (≈ 106 µM)	–	–	COc1cccc(N(C)CCC(=O)N2CCC(c3ccc(-c4ccc(N)nc4)cn3)CC2)c1
0.543	90.2 mL/min/kg	2510 mL/min/kg	47.4 µg/mL (≈ 136 µM)	–	–	Cc1nc(COc2ccc(F)cc2)sc1C(=O)N1CCC(C)CC1
23.5	65 mL/min/kg	276 mL/min/kg	–	–	–	CC(=O)N(C)[C@@H]1CO[C@@H]2CCN(C[C@]3(O)CC[C@@H](C(C)(C)C)CC3)C[C@@H]2C[C@@]1(C)O
–	≤ 4.74 mL/min/kg	≤ 10.7 mL/min/kg	21.1 µg/mL (≈ 93.9 µM)	–	–	CN(C)C(=O)Cn1cc(C(=O)O)ccc1=O
–	12.2 mL/min/kg	53.6 mL/min/kg	9.14 µg/mL (≈ 28.2 µM)	–	–	CCOc1cccc(C(=O)Nc2ccc3c(c2)CCC(=O)N3C)c1
4.87	≤ 4.74 mL/min/kg	≤ 10.7 mL/min/kg	41.2 µg/mL (≈ 156 µM)	–	–	CN(C)c1cc(CNC(=O)C2CCOCC2)ccn1
–	21.4 mL/min/kg	65.7 mL/min/kg	31.5 µg/mL (≈ 95.6 µM)	–	–	Cn1ccc(NC(=O)c2cc(-c3ccncc3)nc3ccccc23)n1
–	–	–	30.2 µg/mL (≈ 100 µM)	–	–	Fc1ccc2oc(Cn3nnc(-c4ccsc4)n3)nc2c1
2.63	5.26 mL/min/kg	≤ 10.7 mL/min/kg	–	–	–	Cc1ccc(OCN2CCCCC2=O)nc1
–	–	–	42.9 µg/mL (≈ 126 µM)	–	–	OC(CNCc1ccc(OCc2cccs2)cc1)c1ccccc1 (stereo not drawn)
–	–	–	45.4 µg/mL (≈ 119 µM)	0.0007	0.0004	CC(C)(Oc1ccc(-c2cnc(N)c(-c3ccc(Cl)cc3)c2)cc1)C(=O)O
162	≤ 4.74 mL/min/kg	64.5 mL/min/kg	40.6 µg/mL (≈ 119 µM)	–	–	C[C@@H](C(=O)N1CCCC1)N1CCC(n2c(=O)[nH]c3ccccc32)CC1
0.691	193 mL/min/kg	2640 mL/min/kg	–	–	–	Cc1cnc(N2CCSCC2)nc1N1CCSCC1
